Read-outs that look alike come from different tables or passages of the source.
Key:
[1] = tested on: P. falciparum male gametocytes; assay: P. falciparum Dual Gamete Formation Assay (PfDGFA), male readout (exflagellation); type: cell-based, Plasmodium falciparum NF54; settings: for Activity: hit = >50% inhibition in male or female readout in at least 3 replicates, 0 = no class assigned
How it was run: (§1)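 NF54 mature gametocytes (d14), cpd 24 h 37°C hypoxic gas; trigger: xanthurenic acid ookinete medium + Cy3 anti-Pfs25, 4°C 4 min → 28°C 4 min. Male: exflagellation centres, brightfield x6. Female: Pfs25+ gametes, fluorescence, +24 h 28°C dark.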

[2] = tested on: P. falciparum female gametocytes; assay: P. falciparum Dual Gamete Formation Assay (PfDGFA), female readout (Pfs25-positive female gametes); type: cell-based, Plasmodium falciparum NF54
How it was run: as §1

[3] = 2µM, 24h preincubation with gametocytes prior to induction of gametogenesis, average of replicates
[4] = 2µM, 24h preincubation with gametocytes prior to induction of gametogenesis, replicate R1
[5] = 2µM, 24h preincubation with gametocytes prior to induction of gametogenesis, replicate R3
[6] = 2µM, 24h preincubation with gametocytes prior to induction of gametogenesis, replicate R4
[7] = 2µM, 24h preincubation, number of replicates with >50% inhibition in the male readout
[8] = 2µM, 24h preincubation, number of replicates with >50% inhibition in the female readout
[9] = PfDGFA at 2µM, 24h preincubation with gametocytes, average of replicates
[10] = PfDGFA at 2µM, 24h preincubation with gametocytes, replicate R1
[11] = PfDGFA at 2µM, 24h preincubation with gametocytes, replicate R3
[12] = PfDGFA at 2µM, 24h preincubation with gametocytes, replicate R4
[13] = number of replicates with >50% inhibition in the male readout, 2µM
[14] = number of replicates with >50% inhibition in the female readout, 2µM
[15] = 2µM, 24h preincubation, hits selected on >50% inhibition in the male readout across replicates
[16] = PfDGFA at 2µM, 24h preincubation
[17] = 2µM, 24h preincubation, hits selected on >50% inhibition in the female readout across replicates
[18] = PfDGFA at 2µM, 24h preincubation with gametocytes prior to induction of gametogenesis, replicate R1
[19] = PfDGFA at 2µM, 24h preincubation with gametocytes prior to induction of gametogenesis, replicate R3
[20] = PfDGFA at 2µM, 24h preincubation with gametocytes prior to induction of gametogenesis, replicate R4
[21] = PfDGFA at 2µM, 24h preincubation, average of replicates

| Compound | Average inhibition male (%) [1, 3] [%] | % inhibition male (individual replicates) R1 [1, 4] [%] | % inhibition male (individual replicates) R3 [1, 5] [%] | % inhibition male (individual replicates) R4 [1, 6] [%] | Average inhibition female (%) [2, 3] [%] | % inhibition female (individual replicates) R1 [2, 4] [%] | % inhibition female (individual replicates) R3 [2, 5] [%] | % inhibition female (individual replicates) R4 [2, 6] [%] | HitlevelM [1, 15] | Activity [1, 16] | HitlevelF [2, 17] | also measured |
| --- | --- | --- | --- | --- | --- | --- | --- | --- | --- | --- | --- | --- |
| CN1CCN(Cc2cccc(-c3ccc4c(Nc5ccc(Oc6ccccc6)cc5)ccnc4c3)c2)CC1 [TCMDC-138476] | -8.7 | -12.6 | -7.4 | -11.7 | 18.5 | 35.6 | -5.5 | 24.1 | – | – | – | HitlevelM [1, 7]: 0; HitlevelF [2, 8]: 0 |
| O=C(Cc1cccc(O)c1)NCC(Cc1ccc(O)cc1)c1ccccc1 (stereo not shown) [TCMDC-138482] | – | – | – | – | – | – | – | – | – | – | – | Selectivity Ratio M ([1]; HepG2 Tox50 versus male IC50): 58.17; inhibition at 2 µM ([1]; Plasmodium falciparum, 2µM, 24h preincubation with gametocytes, average of replicates, read-out: Average inhibition male (%)): 97.3%; inhibition at 2 µM ([1]; Plasmodium falciparum, 2µM, 24h preincubation with gametocytes, replicate R1, read-out: % inhibition male (individual replicates) R1): 97.5%; inhibition at 2 µM ([1]; Plasmodium falciparum, 2µM, 24h preincubation with gametocytes, replicate R2, read-out: % inhibition male (individual replicates) R2): 95.7%; inhibition at 2 µM ([1]; Plasmodium falciparum, 2µM, 24h preincubation with gametocytes, replicate R3, read-out: % inhibition male (individual replicates) R3): 95.7%; inhibition at 2 µM ([1]; Plasmodium falciparum, 2µM, 24h preincubation with gametocytes, replicate R4, read-out: % inhibition male (individual replicates) R4): 100%; IC50 ([1]; Plasmodium falciparum, PfDGFA, 24 h incubation with gametocytes before induction, exflagellation readout, read-out: Male IC50): 1.72 µM; Selectivity ratio F ([2]; HepG2 Tox50 versus female IC50): 10; inhibition at 2 µM ([2]; Plasmodium falciparum, 2µM, 24h preincubation with gametocytes, average of replicates, read-out: Average inhibition female (%)): 28.1%; inhibition at 2 µM ([2]; Plasmodium falciparum, 2µM, 24h preincubation with gametocytes, replicate R1, read-out: % inhibition female (individual replicates) R1): 32.7%; inhibition at 2 µM ([2]; Plasmodium falciparum, 2µM, 24h preincubation with gametocytes, replicate R2, read-out: % inhibition female (individual replicates) R2): 38.2%; inhibition at 2 µM ([2]; Plasmodium falciparum, 2µM, 24h preincubation with gametocytes, replicate R3, read-out: % inhibition female (individual replicates) R3): 28.5%; inhibition at 2 µM ([2]; Plasmodium falciparum, 2µM, 24h preincubation with gametocytes, replicate R4, read-out: % inhibition female (individual replicates) R4): 13.2%; IC50 ([2]; Plasmodium falciparum, PfDGFA, 24 h incubation with gametocytes before induction, female gamete readout, read-out: Female IC50): > 10 µM |
| COc1cc2nc(N3CCC(CCCC4CCNCC4)CC3)nc(NCc3ccccn3)c2cc1OC.O=C(O)C(F)(F)F [TCMDC-138494] | – | – | – | – | – | – | – | – | – | – | – | Average inhibition male (%) [1, 9]: 68.1%; % inhibition male (individual replicates) R1 [1, 10]: 83.7%; % inhibition male (individual replicates) R3 [1, 11]: 75.6%; % inhibition male (individual replicates) R4 [1, 12]: 100.2%; HitlevelM [1, 13]: 3; Average inhibition female (%) [2, 9]: 59.5%; % inhibition female (individual replicates) R1 [2, 10]: 47.2%; % inhibition female (individual replicates) R3 [2, 11]: 73.7%; % inhibition female (individual replicates) R4 [2, 12]: 83.6%; HitlevelF [2, 14]: 2 |
| COc1ccc(Cn2c(Nc3cccc(C(F)(F)F)c3)nc3ccc(C(=O)NCCN4CCCC4)cc32)cc1Cl [TCMDC-138531] | -2.0 | 6.1 | 3.4 | -8.5 | 9.2 | 9.3 | -11.0 | 18.4 | 0 | 0 | 0 | – |
| c1ccc(Oc2ccc(Nc3ccnc(Nc4cccc(CNCCCN5CCOCC5)c4)n3)cc2)cc1 [TCMDC-138615] | – | – | – | – | – | – | – | – | – | – | – | Average inhibition male (%) [1, 9]: 70.3%; % inhibition male (individual replicates) R1 [1, 10]: 74.9%; % inhibition male (individual replicates) R3 [1, 11]: 61.1%; % inhibition male (individual replicates) R4 [1, 12]: 77.6%; HitlevelM [1, 13]: 4; Average inhibition female (%) [2, 9]: 19.0%; % inhibition female (individual replicates) R1 [2, 10]: 20.2%; % inhibition female (individual replicates) R3 [2, 11]: 10.9%; % inhibition female (individual replicates) R4 [2, 12]: 5.3%; HitlevelF [2, 14]: 0 |
| COc1cc2nc(N3CCC(CNC(=O)c4ccc(-c5ccc(C(F)(F)F)cc5)cc4)CC3)nc(N)c2cc1OC [TCMDC-138716] | – | – | – | – | – | – | – | – | – | – | – | Average inhibition male (%) [1, 9]: 66.2%; % inhibition male (individual replicates) R1 [1, 10]: 83.5%; % inhibition male (individual replicates) R3 [1, 11]: 34.3%; % inhibition male (individual replicates) R4 [1, 12]: 64.2%; HitlevelM [1, 13]: 3; Average inhibition female (%) [2, 9]: 47.4%; % inhibition female (individual replicates) R1 [2, 10]: 32.4%; % inhibition female (individual replicates) R3 [2, 11]: 31.5%; % inhibition female (individual replicates) R4 [2, 12]: 42.3%; HitlevelF [2, 14]: 1 |
| CC(=O)Nc1ccc(Nc2ncc([N+](=O)[O-])c(Nc3ccccc3C(N)=O)n2)cc1.Cl [TCMDC-138731] | – | – | – | – | – | – | – | – | – | – | – | % inhibition male (individual replicates) R1 [1, 18]: 16.1%; % inhibition male (individual replicates) R3 [1, 19]: -4.1%; % inhibition male (individual replicates) R4 [1, 20]: 46.2%; Average inhibition male (%) [1, 21]: 19.6%; % inhibition female (individual replicates) R1 [2, 18]: 2.0%; % inhibition female (individual replicates) R3 [2, 19]: 5.4%; % inhibition female (individual replicates) R4 [2, 20]: -11.2%; Average inhibition female (%) [2, 21]: -0.8% |
| O=C(NCCCCN1CCC(c2ccc3c(c2OCCN2CCCC2)CCCC3)CC1)c1ccc(-c2ccc(C(F)(F)F)cc2)cc1 [TCMDC-138768] | 31.7 | 23.4 | -6.7 | 63.6 | 9.4 | 18.9 | -7.9 | 3.3 | 1 | 0 | 0 | – |
| Cc1[nH]c(C)c(-c2ccc(Oc3ccc(OC(F)(F)F)cc3)cc2)c(=O)c1Br [TCMDC-138826] | -11.2 | -5.2 | – | -18.5 | 14.3 | 12.8 | 15.5 | 15.2 | 0 | 0 | 0 | – |
| O=C(NCC1CCN(CCN2CCC(c3cn(CCO)c4ccccc34)CC2)CC1)c1ccc(-c2ccc(C(F)(F)F)cc2)cc1 [TCMDC-138856] | 42.1 | 32.1 | – | 39.5 | 23.9 | 24.2 | 27.5 | 18.4 | – | – | – | HitlevelM [1, 7]: 1; HitlevelF [2, 8]: 0 |
| CC1(C)CC(NCCCCCCCOc2ccc(OCc3ccccc3)cc2)CC(C)(C)N1.Cl [TCMDC-138958] | – | – | – | – | – | – | – | – | – | – | – | Average inhibition male (%) [1, 9]: 66.7%; % inhibition male (individual replicates) R1 [1, 10]: 71.0%; % inhibition male (individual replicates) R3 [1, 11]: 36.7%; % inhibition male (individual replicates) R4 [1, 12]: 78.9%; HitlevelM [1, 13]: 3; Average inhibition female (%) [2, 9]: 23.9%; % inhibition female (individual replicates) R1 [2, 10]: 22.5%; % inhibition female (individual replicates) R3 [2, 11]: -1.0%; % inhibition female (individual replicates) R4 [2, 12]: 34.0%; HitlevelF [2, 14]: 0 |
| CCN1CCC2(c3cccc(OC)c3)Cc3nc4ccccc4c(-c4ccccc4)c3CC2C1 (stereo not shown) [TCMDC-138968] | 50.6 | 28.7 | 22.4 | 66.9 | 33.9 | 34.1 | 23.7 | 21.6 | – | – | – | HitlevelM [1, 7]: 2; HitlevelF [2, 8]: 1 |
| Oc1ccc2[nH]cc(C3CCN(CCCNCc4ccc(-c5ccccc5)cc4)CC3)c2c1 [TCMDC-139047] | 41.4 | 26.8 | – | 40.8 | 20.7 | 11.5 | 19.3 | 14.8 | – | – | – | HitlevelM [1, 7]: 1; HitlevelF [2, 8]: 0 |
| NC(CC1CC(=O)N1CC(=O)O)C(=O)O (stereo not shown) [TCMDC-139050] | -4.7 | 15.3 | -15.7 | -29.8 | 6.8 | 12.5 | 4.8 | 14.4 | 0 | 0 | 0 | – |
| COC(=O)c1ccc(-c2ccc(-c3cccnc3)cc2C)cc1 [TCMDC-139074] | 18.8 | 21.7 | 27.9 | 3.9 | 13.5 | 26.9 | 10.2 | 0.5 | 0 | 0 | 0 | – |

Source: publication PMC10584170, “Machine learning-based phenotypic imaging to characterise the targetable biology of Plasmodium falciparum male gametocytes for the development of transmission-blocking antimalarials” (PLOS Pathogens, 2023)
